Results from patent US20080194611A1, “Modulation of Cell Barrier Dysfunction” (priority 2005, published 2008).

Tests used:
S1P3 receptor = test: Tyrosine phosphorylation (transactivation) of the S1P3 receptor; format: cell-based, Human
[1] = methadone maintenance patients; mean dose 0.1 mg/kg intravenously; cited from earlier work
[2] = target: T1, receptor tyrosine phosphatase mu (RPTPμ) (Homo sapiens, UniProt P28827); test: RPTPμ tyrosine phosphatase activity assay; format: biochemical; conditions: treatment of HPMVEC
T1 construct: Treated or untreated HPAEC lysates and/or immunoprecipitated RPTPμ were analyzed for tyrosine phosphatase activity; host or cells: human pulmonary endothelial cells (HPMVEC, 'HPAEC')

[3] = cited from earlier work
[4] = tested on: PA-I lectin/adhesin expression in P. aeruginosa 27853/PLL-EGFP
[5] = tested on: total endothelial cell tyrosine phosphatase activity; test: Total cellular tyrosine phosphatase activity assay; format: cell-based, Human
[6] = tested on: Human pulmonary microvascular endothelial cell; format: cell-based
[7] = in vivo; cited from earlier work
[8] = tested on: PA-I lectin/adhesin expression in P. aeruginosa PA27853 and PAO1
[9] = intravenously applied; cited from earlier work
[10] = tested on: membrane protein fractions of P. aeruginosa; test: Binding of morphine to P. aeruginosa membrane protein; design: species or system Pseudomonas aeruginosa
P. aeruginosa PA27853 = format: in vivo, mice; conditions: slow release morphine pellets; daily 1×10^8 cfu/ml PA27853

T1 sequence (P28827 21-1452): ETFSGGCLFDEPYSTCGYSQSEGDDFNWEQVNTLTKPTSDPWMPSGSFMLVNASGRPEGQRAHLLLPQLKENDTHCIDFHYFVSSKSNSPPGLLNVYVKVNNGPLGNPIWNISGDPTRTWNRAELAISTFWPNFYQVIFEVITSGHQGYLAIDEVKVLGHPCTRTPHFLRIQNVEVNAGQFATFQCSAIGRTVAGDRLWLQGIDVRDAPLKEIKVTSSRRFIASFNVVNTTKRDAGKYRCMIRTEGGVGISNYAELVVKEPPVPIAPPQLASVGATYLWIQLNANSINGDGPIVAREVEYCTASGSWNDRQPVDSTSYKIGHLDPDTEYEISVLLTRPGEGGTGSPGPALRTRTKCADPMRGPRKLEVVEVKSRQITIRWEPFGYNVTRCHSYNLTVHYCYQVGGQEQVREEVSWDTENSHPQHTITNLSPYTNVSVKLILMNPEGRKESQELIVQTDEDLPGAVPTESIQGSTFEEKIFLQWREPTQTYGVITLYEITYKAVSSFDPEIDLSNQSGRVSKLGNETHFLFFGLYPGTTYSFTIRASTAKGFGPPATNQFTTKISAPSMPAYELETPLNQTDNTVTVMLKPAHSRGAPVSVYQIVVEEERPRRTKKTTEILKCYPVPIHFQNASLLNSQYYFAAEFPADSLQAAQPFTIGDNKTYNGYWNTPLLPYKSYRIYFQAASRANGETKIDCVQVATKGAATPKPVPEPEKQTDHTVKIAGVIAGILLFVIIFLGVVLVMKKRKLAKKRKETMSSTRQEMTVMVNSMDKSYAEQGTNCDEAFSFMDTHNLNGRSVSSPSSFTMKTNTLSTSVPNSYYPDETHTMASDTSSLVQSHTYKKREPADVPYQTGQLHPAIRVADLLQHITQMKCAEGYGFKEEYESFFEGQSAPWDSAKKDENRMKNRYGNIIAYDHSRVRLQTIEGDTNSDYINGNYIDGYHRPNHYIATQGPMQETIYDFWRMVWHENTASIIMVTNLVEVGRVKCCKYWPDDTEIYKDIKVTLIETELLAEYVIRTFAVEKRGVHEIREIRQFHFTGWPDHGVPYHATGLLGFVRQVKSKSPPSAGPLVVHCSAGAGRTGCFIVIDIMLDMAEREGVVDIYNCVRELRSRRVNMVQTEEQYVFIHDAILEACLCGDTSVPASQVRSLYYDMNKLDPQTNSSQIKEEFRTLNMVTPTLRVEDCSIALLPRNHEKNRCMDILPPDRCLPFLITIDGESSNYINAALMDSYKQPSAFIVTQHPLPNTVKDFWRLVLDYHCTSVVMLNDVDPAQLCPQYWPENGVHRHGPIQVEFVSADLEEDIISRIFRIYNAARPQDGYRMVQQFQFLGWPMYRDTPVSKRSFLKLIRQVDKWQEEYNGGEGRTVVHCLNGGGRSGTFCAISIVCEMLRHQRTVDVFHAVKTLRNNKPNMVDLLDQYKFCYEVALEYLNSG

## C[N+]1(CC2CC2)CCC23c4c5ccc(O)c4OC2C(=O)CCC3(O)C1C5 (stereo not shown) [MNTX, N-methylnaltrexone]
S1P3 receptor; RPTPμ from MNTX-treated (1 hour) endothelial cells
  Src tyrosine phosphorylation of isolated S1P3 receptor, in vitro: blocked Src tyrosine phosphorylation of the S1P3 receptor
S1P3 receptor; pre-treatment
  effect on agonist-induced S1P3 receptor transactivation: completely blocked
[1]
  mean plasma levels: 162 ng/mL
[2]
  RPTPμ tyrosine phosphatase activity: enhanced RPTPμ tyrosine phosphatase activity
[3]
  lipid solubility / polarity: greater polarity and lower lipid solubility
[4]
  effect on morphine-induced PA-I lectin/adhesin expression: significantly attenuated
[5]
  total endothelial cell tyrosine phosphatase activity: increased total endothelial cell tyrosine phosphatase activity
[5]; siRNA
  MNTX-mediated increase of total tyrosine phosphatase activity with RPTPμ silenced: significantly attenuated
[6]
  MNTX protection from thrombin- and LPS-induced disruption with mOP-R silenced (siRNA): little effect
  MNTX protection with RPTPμ silenced (siRNA): inhibited the protective effects of MNTX
  MNTX protection with S1P3 receptor silenced (siRNA): inhibited
  dose dependence of barrier protective effects: Decreasing the dose of MNTX below 0.1 μM attenuated its barrier protective effects
  effect on LPS-induced endothelial cell barrier disruption: attenuated endothelial cell barrier disruption
  effect on MS- and DAMGO-induced endothelial cell barrier disruption: blocked
  effect on S1P barrier enhancement: increased the sustained endothelial cell barrier-enhancing effect
  effect on ionomycin-induced endothelial cell barrier disruption: but not from the Ca^2+ ionophore, ionomycin
  effect on thrombin-induced endothelial cell barrier disruption: attenuated endothelial cell barrier disruption
[7]
  crossing of the blood-brain barrier: does not cross the blood-brain barrier

## CN1CC[C@]23c4c5ccc(O)c4O[C@H]2[C@@H](O)C=C[C@H]3[C@H]1C5 [morphine]
[8]
  increase in PA-I expression: four-fold
  response to express PA-I: induce a robust response
[9]
  concentration accumulated at tissue sites such as the intestinal mucosa: ≤ 100 µM
[10]
  binding to membrane protein fractions: binds to membrane protein fractions
[6]
  effect of agonist alone on endothelial cell barrier function (TER): induced endothelial cell barrier disruption in a dose-dependent manner
P. aeruginosa PA27853
  mice developing severe sepsis: 4/4
  mortality: significant mortality
